How the values were obtained:
Assay type in all cases: in vivo
corn seeds = assay: Corn seed germination experiment (seed soaking method, NYT 2061.1-2011)
Excerpt: Test Method: Ministerial Standard NYT 2061.1-2011, Seed Soaking Method
Test samples: crude chlorin, and dihydroporphin monomers including chlorin fG, chlorin e6, pheophorbide, pyropheophorbide, chlorin e4, purpurin-7, purpurin-18, chlorin p6, 15-formyl rhodochlorin, 15-oxymethyl rhodochlorin, 15-oxymethyl rhodochlorin lactone A, 15-hydroxymethyl rhodochlorin, and 15-hydroxymethyl rhodochlorin lactone B, and pure water and iron chlorin e6 (China Pesticide Registration Certificate Number: PD20190031) were used as blank and positive control.
10 mg of each sample was weighed and put into a 10 ml volumetric flask, dissolved with DMSO, and diluted to volume after being dissolved completely. 1 ml of each diluted monomer solution was put into a 50-1000 ml volumetric flask, added with water, blended and diluted to volume so as to prepare a solution with a concentration of 2 ppm, 0.2 ppm, or 0.02 ppm.
The method was substantially the same as that in Example 2, except that the test samples were monomer chlorin e6 and control monomer chlorin e6 iron (III), both at a concentration of 0.02 ppm and the test seeds were corn, soybean, rice and wheat seeds. The preparation method of the control monomer was conducted by referring to CN102273467B.

soybean seeds = assay: Soybean seed germination experiment (seed soaking method)
Procedure: (§1) Test Method: Ministerial Standard NYT 2061.1-2011, Seed Soaking Method 10 mg of each sample was weighed and put into a 10 ml volumetric flask, dissolved with DMSO, and diluted to volume after being dissolved completely. 1 ml of each diluted monomer solution was put into a 50-1000 ml volumetric flask, added with water, blended and diluted to volume so as to prepare a solution with a concentration of 2 ppm, 0.2 ppm, or 0.02 ppm. The method was substantially the same as that in Example 1 except that soybean seeds were used as the crop seeds, and the samples were crude chlorin, pyropheophorbide, chlorin f, chlorin e6, chlorin e4, purpurin-18, 15-oxymethyl rhodochlorin lactone, and 15-hydroxymethyl rhodochlorin lactone. The method was substantially the same as that in Example 2, except that the test samples were monomer chlorin e6 and control monomer chlorin e6 iron (III), both at a concentration of 0.02 ppm and the test seeds were corn, soybean, rice and wheat seeds. The preparation method of the control monomer was conducted by referring to CN102273467B.

rice seeds = assay: Rice seed germination experiment (seed soaking method)
Procedure: as §1, with “Example 2” for “Example 1”, “that rice” for “that soybean”, “crop seeds.” for “crop seeds, and the samples were crude chlorin, pyropheophorbide, chlorin f, chlorin e6, chlorin e4, purpurin-18, 15-oxymethyl rhodochlorin lactone, and 15-hydroxymethyl rhodochlorin lactone.”

wheat seeds = assay: Wheat seed germination experiment (seed soaking method)
Procedure: as §1, with “Example 2” for “Example 1”, “that wheat” for “that soybean”, “crop seeds.” for “crop seeds, and the samples were crude chlorin, pyropheophorbide, chlorin f, chlorin e6, chlorin e4, purpurin-18, 15-oxymethyl rhodochlorin lactone, and 15-hydroxymethyl rhodochlorin lactone.”

[1] = 0.02 ppm sample solution, seed soaking
[2] = 0.2 ppm sample solution, seed soaking
[3] = 2 ppm sample solution, seed soaking
[4] = soybean seeds, 0.02 ppm sample solution
[5] = soybean seeds, 0.2 ppm sample solution
[6] = soybean seeds, 2 ppm sample solution
[7] = comparison of the monomers, 0.02 ppm
[8] = comparison of the monomers, 0.02 ppm, listed as chlorin e6

| Compound | Germination rate % (corn seeds; [1]) [%] | Germination rate % (corn seeds; [2]) [%] | Germination rate % (corn seeds; [3]) [%] | Germination rate % (soybean seeds; [4]) [%] | Germination rate % (soybean seeds; [5]) [%] | Germination rate % (soybean seeds; [6]) [%] | Germination rate % (rice seeds; 0.02 ppm sample solution) [%] | Germination rate % (rice seeds; 2 ppm sample solution) [%] | Germination rate % (wheat seeds; 0.2 ppm sample solution) [%] | Germination rate % (wheat seeds; 2 ppm sample solution) [%] | Germination rate % (rice seeds; 0.2 ppm sample solution) [%] | Germination rate % (wheat seeds; 0.02 ppm sample solution) [%] | further results |
| --- | --- | --- | --- | --- | --- | --- | --- | --- | --- | --- | --- | --- | --- |
| 15-oxymethyl rhodochlorin | 56 | 52 | 52 | – | – | – | – | – | – | – | – | – | – |
| 15-oxymethyl rhodochlorin lactone | 54 | 66 | 58 | 58 | 58 | 60 | 72 | 70 | 94 | 82 | – | – | – |
| C=Cc1c(C)c2cc3nc(c(C=O)c4[nH]c(cc5nc(cc1[nH]2)C(C)=C5CC)c(C)c4C(=O)O)[C@@H](CCC(=O)O)[C@@H]3C [15-formyl rhodochlorin] | 52 | 51 | 54 | – | – | – | – | – | – | – | – | – | – |
| C=Cc1c(C)c2cc3nc(c4c5[nH]c(cc6nc(cc1[nH]2)C(C)=C6CC)c(C)c5C(=O)OC4)C(CCC(=O)O)C3C (centres unmarked) [15-hydroxymethyl rhodochlorin lactone] | 60 | 54 | 48 | – | 60 | – | 72 | 68 | 96 | 92 | 74 | 86 | – |
| C=Cc1c(C)c2cc3nc(c(CO)c4[nH]c(cc5nc(cc1[nH]2)C(C)=C5CC)c(C)c4C(=O)O)C(CCC(=O)O)C3C (centres unmarked) [15-hydroxymethyl rhodochlorin] | 58 | 59 | 55 | – | – | – | – | – | – | – | – | – | – |
| C=Cc1c(C)c2cc3nc(c(C)c4[nH]c(cc5nc(cc1[nH]2)C(C)=C5CC)c(C)c4C(=O)O)[C@@H](CCC(=O)O)[C@@H]3C [Chlorin e4, chlorin e4] | 57 | 55 | 48 | 67 | 66 | 65 | 71 | 77 | 98 | 97 | 76 | 93 | – |
| C=Cc1c(C)c2cc3nc(c(CC(=O)O)c4[nH]c(cc5nc(cc1[nH]2)C(C)=C5CC)c(C)c4C(=O)O)[C@@H](CCC(=O)O)[C@@H]3C [Chlorin e6, chlorin e6] | 58 | 42 | 46 | 60 | 59 | 60 | 70 | 68 | 96 | 90 | 74 | 94 | Germination rate % (corn seeds; [7]): 58%; Germination rate % (corn seeds; [8]): all better than those for the iron chelate monomer chlorin e6 iron (III); Germination rate % (soybean seeds; comparison of the monomers, soy bean seeds, 0.02 ppm): 66%; Germination rate % (soybean seeds; comparison of the monomers, soy bean seeds, 0.02 ppm, listed as chlorin e6): all better than those for the iron chelate monomer chlorin e6 iron (III); Germination rate % (rice seeds; [7]): 76%; Germination rate % (rice seeds; [8]): all better than those for the iron chelate monomer chlorin e6 iron (III); Germination rate % (wheat seeds; 0.02 ppm sample solution, listed as chlorin e6): best germination effect; Germination rate % (wheat seeds; [7]): 94%; Germination rate % (wheat seeds; [8]): all better than those for the iron chelate monomer chlorin e6 iron (III) |

Reference: patent US12279618B2, “Use of dihydroporphin derived from chlorophyll as plant growth regulator” (Anqing Better Bioengineering Co., Ltd, priority 2019, dated 2025)
